# Assay results from patent publication EP0539170A1, “Benzodiazepine derivatives and their use as antagonists of cholecystokinin and/or gastrin receptors” (priority 1991, dated 1993).
# Counter-ions that a name gives are not always drawn.
# Target: T1, CCK Receptor (Pancreas) (Rattus norvegicus, UniProt P30551)
# T1 construct: The whole pancreas was dissected free of fat tissue and was homogenized; from tissue; host or cells: rat pancreas membrane homogenate
# T1 sequence (P30551 1-444): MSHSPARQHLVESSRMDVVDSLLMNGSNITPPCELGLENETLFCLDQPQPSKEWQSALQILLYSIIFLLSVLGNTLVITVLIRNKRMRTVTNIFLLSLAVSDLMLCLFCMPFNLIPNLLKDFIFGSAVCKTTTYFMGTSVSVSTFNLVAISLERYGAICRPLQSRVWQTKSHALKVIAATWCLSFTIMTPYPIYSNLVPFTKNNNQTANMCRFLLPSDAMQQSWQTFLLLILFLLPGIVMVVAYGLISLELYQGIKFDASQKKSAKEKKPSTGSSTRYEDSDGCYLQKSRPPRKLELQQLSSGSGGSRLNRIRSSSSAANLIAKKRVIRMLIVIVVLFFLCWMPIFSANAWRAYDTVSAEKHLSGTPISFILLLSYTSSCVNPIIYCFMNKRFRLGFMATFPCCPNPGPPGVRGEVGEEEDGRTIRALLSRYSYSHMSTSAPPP
# Experiment: CCK Receptor Binding (Pancreas), inhibition of specific 125I-CCK-8 binding
# Set-up: species or system Sprague-Dawley rats
# Details: rat whole pancreas membranes; 50 pM 125I-CCK-8; 25°C for 2 hours
# Experimental: CCK-8 sulphated was radiolabelled with ¹²⁵I-Bolton Hunter reagent (2000 Ci/mmole). Receptor binding was performed according to Chang and Lotti (Proc. Natl. Acad. Sci. 83, 4923-4926, 1986) with minor modifications.
# Male Sprague-Dawley rats (150-200g) were sacrificed by decapitation. The whole pancreas was dissected free of fat tissue and was homogenized in 25 volumes of ice-cold 10 mM N-2-hydroxyethyl-piperazine-N′-2-ethane sulphonic acid (HEPES) buffer with 0.1% soya bean trypsin inhibitor (pH 7.4 at 25°C) with a Kinematica Polytron. The homogenates were centrifuged at 47,800 g for 10 min. Pellets were resuspended in 10 volumes of binding assay buffer (20mM (HEPES)), 1mM ethylene glycol-bis-(β-aminoethylether-N,N′-tetraacetic acid) (EGTA), 5mM MgCl₂, 150 mM NaCl, bacitracin 0.25 mg/ml, soya bean trypsin inhibitor 0.1 mg/ml, and bovine serum albumin 2 mg/ml pH 6.5 at 25°C) using a Teflon (trademark) homogenizer, 15 strokes at 500 rpm. The homogenate was further diluted in binding assay buffer to give a final concentration of 0.5 mg original wet weight/1 ml buffer. […] All assays were run in duplicate. The reaction mixtures were incubated at 25°C for 2 hours and the reaction terminated by rapid filtration (Brandell 24 well cell harvester) over Whatman GF/C filters, washing 3 x 4 mls with ice-cold 100 Mm NaCl. The radioactivity on the filters was counted with a LKB gamma counter.
# Drug displacement studies were performed with at least 10 concentrations of compounds of Formula I and the IC₅₀ values were determined by regression analysis IC₅₀ refers to the concentration of the compound required to inhibit 50% of specific binding of ¹²⁵I-CCK-8.
row,IC50,Compound
1,> 3 µM,"Cc1cccc(NC(=O)NC2N=C(N3CCCCCC3)c3ccccc3N(C)C2=O)c1 (single isomer, unassigned; (-)) [Example 28, (-)-N-[2,3-Dihydro-5-(homopiperidin-1-yl)-1-methyl-2-oxo-1H-1,4-benzodiazepin-3-yl]-N′-[3-methylphenyl] urea]"
2,0.12 µM,"CCCN1C(=O)C(NC(=O)Nc2cccc(C)c2)N=C(N2CCCCC2)c2ccccc21 (racemic) [Example 44, N-[3(R,S)-2,3-Dihydro-2-oxo-5-(piperidin-1-yl)-1-propyl-1H-1,4-benzodiazepin-3-yl]-N′-[3-methylphenyl] urea]"
3,> 3 µM,"CCCN1C(=O)C(NC(=O)Nc2cccc(OC)c2)N=C(N2CCN(C)CC2)c2ccccc21 (racemic) [Example 12, N-[3(R,S)-2,3-Dihydro-5-(4-methylpiperazin-1-yl)-2-oxo-1-propyl-1H-1,4-benzodiazepin-3-yl]-N#MIN#-[3-methoxyphenyl] urea]"
4,0.00716 µM,"CN1C(=O)C(NC(=O)Nc2cccc(F)c2)N=C(N2CCCCCC2)c2ccccc21 (racemic) [Example 60, N-[3(R,S)-2,3-Dihydro-5-(homopiperidin-1-yl)-1-methyl-2-oxo-1H-1,4-benzodiazepin-3-yl]-N′-[3-fluorophenyl] urea]"
5,> 3 µM,"CCCN1C(=O)C(NC(=O)Nc2cccc(C)c2)N=C(N2CCNCC2)c2ccccc21 (racemic) [Example 36, N-[3(R,S)-2,3-Dihydro-2-oxo-5-(piperazin-1-yl)-1-propyl-1H-1,4-benzodiazepin-3-yl]-N′-[3-methylphenyl] urea]"
6,1.8 µM,"Cc1cccc(NC(=O)NC2N=C(N3CCN(C)CC3)c3ccccc3N(CC(C)C)C2=O)c1 (racemic) [Example 22, N-[3(R,S)-2,3-Dihydro-5-(4-methylpiperazin-1-yl)-1-(2-methylpropyl)-2-oxo-1H-1,4-benzodiazepin-3-yl]-N′-[3-methylphenyl] urea]"
7,0.9 µM,"COc1cccc(NC(=O)NC2N=C(N3CCN(C)CC3)c3ccccc3N(C)C2=O)c1 (racemic) [Example 10, N-[3(R,S)-2,3-Dihydro-1-methyl-5-(4-methylpiperazin-1-yl)-2-oxo-1H-1,4-benzodiazepin-3-yl]-N#MIN#-[3-methoxyphenyl] urea]"
8,> 3 µM,"Cc1cccc(NC(=O)NC2N=C(N3CCCNCC3)c3ccccc3N(C)C2=O)c1 (racemic) [Example 16, N-[3(R,S)-2,3-Dihydro-5-(homopiperazin-1-yl)-1-methyl-2-oxo-1H-1,4-benzodiazepin-3-yl]-N′-[3-methylphenyl] urea]"
9,1.6 µM,"CCCN1C(=O)C(NC(=O)Nc2cccc(C)c2)N=C(N2CCN(C)CC2)c2cc(C)ccc21 (racemic) [Example 38, N-(3(R,S)-2,3-Dihydro-7-methyl-5-(4-methylpiperazin-1-yl)-2-oxo-1-propyl-1H-1,4-benzodiazepin-3-yl]-N′-[3-methylphenyl]urea]"
10,> 3 µM,"CN1CCN(C2=NC(NC(=O)Nc3cccc(-c4nnnn4C)c3)C(=O)N(C)c3ccccc32)CC1 (racemic) [Example 14, N-[3(R,S)-2,3-Dihydro-1-methyl-2-oxo-5-(4-methylpiperazin-1-yl)-1H-1,4-benzodiazepin-3-yl)-N′-[3-(1-methyltetrazol-5-yl)phenyl] urea]"
11,0.337 µM,"CCCN1C(=O)C(NC(=O)Nc2cccc(C)c2)N=C(N2CCSCC2)c2ccccc21 (racemic) [Example 55, N-[3(R,S)-2,3-Dihydro-2-oxo-1-propyl-5-(thiomorpholin-4-yl)-1H-1,4-benzodiazepin-3-yl]-N′-[3-methylphenyl] urea]"
12,0.0117 µM,"Cc1cccc(NC(=O)NC2N=C(N3CCCCCCC3)c3ccccc3N(C)C2=O)c1 (single isomer, unassigned; (+)) [Example 52, (+)-N-[2,3-Dihydro-5-(heptamethyleneimin-1-yl)-1-methyl-2-oxo-1H-1,4-benzodiazepin-3-yl]-N′-[3-methylphenyl] urea hydrochloride]"
13,2.8 µM,"Cc1cccc(NC(=O)NC2N=C(N3CCCN(C)CC3)c3ccccc3N(C)C2=O)c1 (racemic) [Example 17, N-[3(R,S)-2,3-Dihydro-1-methyl-5-(4-methylhomopiperazin-1-yl)-2-oxo-1H-1,4-benzodiazepin-3-yl]-N′-[3-methylphenyl] urea]"
14,0.0184 µM,"Cc1cccc(NC(=O)NC2N=C(N3CCCCCCC3)c3ccccc3N(C)C2=O)c1 (racemic) [Example 43, N-[3(R,S)-2,3-Dihydro-5-(heptamethyleneimin-1-yl)-1-methyl-2-oxo-1H-1,4-benzodiazepin-3-yl]-N#MIN#-[3-methylphenyl] urea]"
